# System: PSMA+HEK cells
# Assay: Luminescence ADCC reporter (CD16α activation) assay with mmAb
# Format: cell-based, human
# Conditions: antibody 10^−7-10^−9 M
# Description: Covalent vs. non-covalent antibody recruitment were compared in functional immune assays. Activation of NK cell CD16α immune receptors was assessed via luminescence based ADCC assays. ADCC was quantified using the ADCC Reportor Bioassay kit (Promega G7010). All ADCC induced luminescence was measured on a SpectraMax i3 plate reader (Molecular Devices). The human IgG isotype control used was purchased from Jackson ImmunoResearch (009-000-003). The human IgG1 monoclonal anti-DNP antibody (mAb) was purchased from Acrobiosystems (DNP-M2). Human IgG from serum was purchased from Innovative Research ([…]1000MG). Anti-DNP depleted serum was made from human IgG from serum (Innovative Research). For PSMA competition controls, 2-PMPA was purchased from Sigma (SML1612). Hek-293T (PSMA+/−) cell lines were generously given by Dr. Cyril Barinka (Institute of Biotechnology CAS, Czech Republic). Ultra low IgG FBS was purchased from Fischer Scientific (A3381901). RPMI-1640 was purchased as a powder from Fischer Scientific (31800089) and resuspended. DMEM was purchased as a powder from Fischer Scientific (12800082) and resuspended. Pen/Strep was purchased from Fischer Scientific (15140-122). FBS was purchased from Fischer Scientific (12484-028). Zeocin was purchased from Fischer Scientific (R25001). HEK-PSMA cells were cultured in DMEM media with 2 mM L-glut, 1% Pen/Strep, 10% FBS, 50 ug/mL Zeocin. HEK cells were cultured in DMEM media with 2 mM L-glut, 1% Pen/Strep, 10% FBS.
# Preparation of antibody-CIR/ARM stocks were mixed overnight prior to addition to the ADCC plate. In the case of mmAb and mAb, incubation was carried out at 600 nM antibody and 1.2 μM CIR or ARM. In the case of IgG from serum, incubation was completed at 230 μM antibody and 8.7 μM CIR or ARM. In all cases, DMSO was kept close to 1%. After the overnight incubation, a dilution series was completed on the antibody-CIR/ARM stocks in RPMI (1% DMSO). […] 75 μL of Bio-Glo Luciferase Assay Reagent was added to each well, and luminescence was quantified using the SpectraMax i3 plate reader. […]
structure (smiles),measurement,value
O=C(O)CC[C@H](NC(=O)N[C@@H](CCCCNC(=O)NCCOCCOCCOCCOCCOCCOCCOCCOC(=O)n1cnc(CCNC(=O)CNc2ccc([N+](=O)[O-])cc2[N+](=O)[O-])c1)C(=O)O)C(=O)O [CIR 3],CD16α based target immune recognition,robust target immune recognition

# Reference: patent US11827624B2, “Covalent immune recruiter compounds for immune cell recognition and associated uses” (McMaster University, priority 2020, dated 2023)
